Test results: patent US20070037752A1, “Novel alanyl-amino peptidase inhibitors for functionally influencing different cells and treating immunological, inflammatory, neuronal, and other diseases” (priority 2003, published 2007)
pIC50: −log10 of the molar value. Like-named read-outs stand apart in the source and are kept apart here. One block for each compound: values may come before it.

Molecular target: alanyl aminopeptidases (APN) (Homo sapiens, UniProt P15144)
Experiment: Inhibition of alanyl aminopeptidase enzymatic activity, fluorogenic substrate (Ala)2-rhodamine 110
Assay type: biochemical
Description: The inhibition characteristics measured are referred to as IC-50 values or ID50 values (the latter marked with “*”) for said enzyme. The enzymatic activity was determined by means of the fluorogenic substrate/product (Ala)2-rhodamine 110.

[1] = Table 3, unstarred values, read-out: IC50APN
[2] = Table 4, unstarred values, read-out: IC50APN
[3] = Table 1, unstarred values, read-out: IC50APN
[4] = Table 9, unstarred values, read-out: IC50APN
[5] = Table 8, unstarred values, read-out: IC50APN
[6] = Table 3, starred values = ID50, read-out: ID50 APN (values marked with *)
[7] = Table 4, starred values = ID50, read-out: ID50 APN (values marked with *)

Sequence of alanyl aminopeptidases (APN) (P15144 whole entry, species assumed): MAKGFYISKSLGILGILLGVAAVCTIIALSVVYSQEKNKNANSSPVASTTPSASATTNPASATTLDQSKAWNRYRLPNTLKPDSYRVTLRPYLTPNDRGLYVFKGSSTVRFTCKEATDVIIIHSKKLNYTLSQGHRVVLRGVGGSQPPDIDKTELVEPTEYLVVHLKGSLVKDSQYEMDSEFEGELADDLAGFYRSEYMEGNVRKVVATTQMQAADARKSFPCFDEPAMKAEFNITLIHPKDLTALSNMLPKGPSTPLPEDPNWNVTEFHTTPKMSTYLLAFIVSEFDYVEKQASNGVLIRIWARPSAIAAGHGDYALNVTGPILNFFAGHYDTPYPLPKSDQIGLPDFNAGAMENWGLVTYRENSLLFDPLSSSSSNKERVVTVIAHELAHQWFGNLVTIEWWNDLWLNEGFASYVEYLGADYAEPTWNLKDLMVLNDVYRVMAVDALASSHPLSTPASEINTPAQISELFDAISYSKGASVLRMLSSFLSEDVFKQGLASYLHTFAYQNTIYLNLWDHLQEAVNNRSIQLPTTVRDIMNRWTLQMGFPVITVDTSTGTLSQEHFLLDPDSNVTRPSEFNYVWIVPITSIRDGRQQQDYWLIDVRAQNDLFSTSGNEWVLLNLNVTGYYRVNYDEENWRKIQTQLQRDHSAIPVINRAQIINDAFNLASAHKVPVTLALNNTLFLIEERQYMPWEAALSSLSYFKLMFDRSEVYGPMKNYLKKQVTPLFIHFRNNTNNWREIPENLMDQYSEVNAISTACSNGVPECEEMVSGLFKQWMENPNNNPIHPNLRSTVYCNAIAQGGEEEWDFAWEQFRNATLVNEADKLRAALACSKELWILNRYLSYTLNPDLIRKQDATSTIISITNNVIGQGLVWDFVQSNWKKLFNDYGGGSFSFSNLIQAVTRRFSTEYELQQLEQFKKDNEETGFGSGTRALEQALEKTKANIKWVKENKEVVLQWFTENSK

pIC50 [1]: 4.81
Structure (SMILES): CCOC(=O)CCCCC(=O)c1c(C)n(C(=O)c2ccc(N3C(=O)CCC3=O)cc2)c(=O)n1C(=O)c1ccc(N2C(=O)CCC2=O)cc1 [A3.072]

pIC50 [2]: 3.84
Structure (SMILES): O=C(Cc1cccs1)N/N=C\c1ccco1 [A4.178]

pIC50 (Table 12, read-out: IC50APN): 4.57
Structure (SMILES): O=C(NC(Sc1ccncn1)C(=O)c1ccccc1)c1ccccc1 (stereo not drawn) [A12.045]

pIC50 (Table 8, starred values = ID50, read-out: ID50 APN (values marked with *)): 3.81
Structure (SMILES): CCCC1NC(=S)N(c2ccccc2)C1=O (stereo not drawn) [A8.040]

pIC50 [3]: 5.20
Structure (SMILES): O=C(CCOC(c1ccccc1)c1ccc(Br)cc1)NO (stereo not drawn) [A1.003]

pIC50 [4]: 4.43
Structure (SMILES): CC1CCN(S(=O)(=O)c2ccc3c(c2)C(Cl)(Cl)C(=O)N3)CC1 [A9.092]

pIC50 [5]: 5.14
Structure (SMILES): CCOC(=O)N1CCc2c(sc(NC(=O)c3ccc(F)cc3)c2C(=O)Nc2ccc(Br)cc2)C1 [A8.005]

pIC50 [2]: 4.46
Structure (SMILES): Cc1ccc(/C=N/NC(=O)c2ccc(F)cc2)o1 [A4.108]

pIC50 [1]: 4.22
Structure (SMILES): O=C(CNC(=O)c1ccccc1F)N/N=C/c1ccc([N+](=O)[O-])o1 [A3.280]

pIC50 [6]: 4.20
Structure (SMILES): CC(=O)Nc1cccc(C(=O)N/N=C/c2ccc(C)o2)c1 [A3.285]

pIC50 [1]: 4.25
Structure (SMILES): COc1ccc(OC)c(NC(=O)/C=C/c2ccc(C)o2)c1 [A3.277]

pIC50 [5]: 4.54
Structure (SMILES): C/C(=N\N=C1\SC(CC(=O)O)C(=O)N1c1ccccc1)c1ccco1 (stereo not drawn) [A8.026]

pIC50 [3]: 5.12
Structure (SMILES): CCOc1ccc(CC(=O)NO)cc1 [A1.006]

pIC50 [5]: 4.67
Structure (SMILES): O=C1C(Cc2ccc(O)cc2)NC(=S)N1C1CCCCC1 (stereo not drawn) [A8.019]

pIC50 [4]: 4.18
Structure (SMILES): Cc1nc(NC(C)C(=O)O)c2nc(C)oc2n1 (stereo not drawn) [A9.108]

pIC50 [5]: 4.84
Structure (SMILES): Cn1c(=O)c2c(nc3sccn32)n(C)c1=O [A8.013]

pIC50 (Table 12, read-out: IC50APN): 4.60
Structure (SMILES): CC(CCc1ccccc1)C(=O)NO (stereo not drawn) [A12.044]

pIC50 [4]: 4.30
Structure (SMILES): CCOC(=O)c1cc(Br)ccc1-c1ccc(/C=C2\C(=O)N=C(O)C(C#N)=C2C)o1 [A9.098]

pIC50 [7]: 4.14
Structure (SMILES): O=C(Cc1ccccc1)NCC(=O)N/N=C/c1ccco1 [A4.161]

pIC50 [1]: 4.82
Structure (SMILES): O=C(NNC1=C(Cl)C(=O)C(Cl)(Cl)C1=O)c1ccccc1 [A3.070]

pIC50 [1]: 4.77
Structure (SMILES): O=C(N/N=C/c1ccco1)c1ccc(O)cc1 [A3.082]

pIC50 [7]: 4.18
Structure (SMILES): COc1ccc(CSCC(=O)N/N=C/c2ccco2)cc1 [A4.157]

pIC50 [1]: 4.61
Structure (SMILES): O=C(N/N=C\c1ccco1)c1ccc(Br)cc1 [A3.148]

pIC50 [6]: 4.31
Structure (SMILES): O=C(CNC(=O)c1ccccc1)N/N=C/c1ccco1 [A3.259]

pIC50 [1]: 4.84
Structure (SMILES): O=c1[nH]c(/C=C/c2ccco2)cc2ccccc12 [A3.067]

pIC50 [1]: 4.61
Structure (SMILES): O=C1/C(=C/C=C/c2ccco2)CCC/C1=C\C=C\c1ccco1 [A3.147]

pIC50 [7]: 4.09
Structure (SMILES): COc1ccc(/C=N/NC(=O)CNC(=O)c2cccc(F)c2)cc1[N+](=O)[O-] [A4.167]

pIC50 [4]: 4.74
Structure (SMILES): Cc1cc(=O)[nH]c(N/N=C/c2ccco2)n1 [A9.041]

pIC50 [2]: 4.87
Structure (SMILES): O=C(COc1ccc(F)cc1)N/N=C/c1ccco1 [A4.026]

pIC50 [2]: 4.63
Structure (SMILES): Cc1ccc(/C=N/NC(=O)c2ccc(O)cc2)o1 [A4.072]

pIC50 [4]: 4.77
Structure (SMILES): O=C(O)C1N=NC(c2ccc(F)cc2)=CN1O (stereo not drawn) [A9.038]

pIC50 [4]: 4.65
Structure (SMILES): Cn1c(=O)[nH]c2nnc(-c3cccs3)nc2c1=O [A9.065]

pIC50 [1]: 4.43
Structure (SMILES): O=C(Nc1ccc(F)cc1)c1ccc([NH+]([O-])O)o1 (stereo not drawn) [A3.226]

pIC50 [1]: 4.18
Structure (SMILES): O=C1C(Cc2ccc(O)cc2)NC(=S)N1c1ccccc1 (stereo not drawn) [A3.292]

pIC50 [1]: 4.65
Structure (SMILES): Cc1ccc(/C=N/NC(=O)COc2ccccc2C)o1 [A3.128]

pIC50 [4]: 4.21
Structure (SMILES): O=C1Nc2cc(C(=O)N3CCN(c4ccccc4)CC3)ccc2NC1CSCc1ccccc1F (stereo not drawn) [A9.106]

pIC50 (Table 11, read-out: IC50APN): 4.92
Structure (SMILES): CCN(CC)C(=O)c1cc([N+](=O)[O-])ccc1C(=O)O [A11.009]

pIC50 [2]: 4.53
Structure (SMILES): O=C(N/N=C/c1ccco1)c1cccc(NC(=O)c2ccccc2)c1 [A4.094]

pIC50 [1]: 4.54
Structure (SMILES): Cc1ccc(C(=O)N/C(=C\c2ccco2)C(=O)N2CCOCC2)cc1C [A3.178]

pIC50 [1]: 4.49
Structure (SMILES): O=C(CC(=O)N/N=C/c1ccco1)N/N=C/c1ccco1 [A3.196]

pIC50 [4]: 4.52
Structure (SMILES): NC(=O)C1CCN(C(=O)/C(=C/c2ccco2)NC(=O)c2ccccc2)CC1 [A9.081]

pIC50 [1]: 4.55
Structure (SMILES): Cc1ccc(Cn2c(SCCC(=O)O)nc3c2c(=O)n(C)c(=O)n3C)cc1 [A3.170]

pIC50 [1]: 4.56
Structure (SMILES): CC(/C=N/NC(=O)c1ccco1)=C\c1ccco1 [A3.168]

pIC50 [7]: 4.20
Structure (SMILES): CC(=O)Nc1cccc(C(=O)N/N=C/c2ccc(C)o2)c1 [A4.154]

pIC50 [1]: 4.70
Structure (SMILES): CC1CCCCN1S(=O)(=O)c1ccc(NC(=O)/C=C/c2ccco2)cc1 (stereo not drawn) [A3.103]

pIC50 [7]: 4.12
Structure (SMILES): COc1ccc(OCC(=O)N/N=C/c2c(Br)cc(Br)c(O)c2Br)cc1 [A4.164]

pIC50 [4]: 4.35
Structure (SMILES): CC1CCN(C(=O)/C(=C\c2ccco2)NC(=O)c2ccccc2)CC1 [A9.096]

pIC50 [1]: 4.74
Structure (SMILES): C=CCOC(=O)c1cc(-c2ccc(/C=C3/C(=O)N(CCCO)C(=O)C(C#N)=C3C)o2)ccc1Cl [A3.087]

pIC50 [6]: 3.49
Structure (SMILES): C/C(=N\NC(=O)c1ccn(C)n1)c1ccco1 [A3.349]

pIC50 [2]: 4.84
Structure (SMILES): O=C(N/N=C/c1ccco1)c1cc(C2CC2)n[nH]1 [A4.030]

pIC50 [4]: 5.32
Structure (SMILES): COc1ccc(/C=N/NC(=O)C2=C(C)Nc3ccccc3S2)cc1Cn1nc(C)c(Br)c1C [A9.007]

pIC50 (Table 12, read-out: IC50APN): 4.21
Structure (SMILES): O=C1Nc2cc(C(=O)N3CCN(c4ccccc4)CC3)ccc2NC1CSCc1ccccc1F (stereo not drawn) [A12.065]

pIC50 [1]: 4.65
Structure (SMILES): Cc1ccc(/C=N/NC2=NC(=O)CS2)o1 [A3.159]

pIC50 [1]: 4.77
Structure (SMILES): COc1cc(/C=N/NC(=O)c2cc(-c3ccco3)n[nH]2)cc(OC)c1OC [A3.083]

pIC50 [1]: 4.46
Structure (SMILES): CCOC(=O)C1CCN(C(=O)/C(=C/c2ccco2)NC(=O)c2ccc(C)c(C)c2)CC1 [A3.209]

pIC50 [2]: 4.91
Structure (SMILES): Cc1nc(C)c(C(=O)N/N=C/c2ccco2)s1 [A4.021]

pIC50 [4]: 4.48
Structure (SMILES): CCOc1cccc(/C=N/NC(=O)C2=C(C)Nc3ccccc3S2)c1O [A9.086]

pIC50 [2]: 4.60
Structure (SMILES): Cc1ccc(C)n1-c1cccc(C(=O)N/N=C/c2cc(Br)c(O)c(Br)c2)c1 [A4.075]

pIC50 (Table 10, read-out: IC50APN): 4.96
Structure (SMILES): Cc1ccc(C(=O)N/C(=C\c2ccco2)C(=O)N2CC3CC(C2)c2cccc(=O)n2C3)cc1 (stereo not drawn) [A10.005]

pIC50 [2]: 4.39
Structure (SMILES): O=C(CCC(=O)Nc1ccccc1)N/N=C/c1ccco1 [A4.125]

pIC50 [1]: 4.43
Structure (SMILES): CCCOC(=O)c1cc(-c2ccc(/C=C3\C(=O)NC(=O)C(C#N)=C3C)o2)ccc1Cl [A3.221]

pIC50 (Table 12, read-out: IC50APN): 4.52
Structure (SMILES): CCOC(=O)C(NC(=O)c1ccccc1)(N1CCC(Cc2ccccc2)CC1)C(F)(F)F (stereo not drawn) [A12.049]

pIC50 (Table 11, read-out: IC50APN): 4.43
Structure (SMILES): O=[N+]([O-])c1ncn(CN2CCOCC2)n1 [A11.026]

pIC50 [2]: 4.55
Structure (SMILES): CC(/C=C/c1ccco1)=N\NC(=O)CNc1ccc2ccccc2c1 [A4.091]

pIC50 (Table 9, starred values = ID50, read-out: ID50 APN (values marked with *)): 5.92
Structure (SMILES): CC1=C(C#N)C(=O)N(CCO)C(=O)/C1=C\c1ccc(-c2cc(Cl)ccc2Cl)o1 [A9.002]

pIC50 (Table 11, read-out: IC50APN): 4.72
Structure (SMILES): O=C(Cc1ccc([N+](=O)[O-])cc1)N1CCOCC1 [A11.012]

pIC50 [6]: 3.87
Structure (SMILES): CC(=O)Oc1ccc2c(=O)c(-c3cnn(-c4ccccc4)c3)c(C(F)(F)F)oc2c1OC(C)=O [A3.325]

pIC50 (Table 12, read-out: IC50APN): 5.19
Structure (SMILES): O=C(COc1ccc(Br)cc1)NO [A12.009]

pIC50 [4]: 4.93
Structure (SMILES): Cc1[nH]c2ccccc2c1C(c1cc(Cl)ccc1O)N1CCOCC1 (stereo not drawn) [A9.025]

pIC50 [1]: 4.89
Structure (SMILES): O=C(COc1cccc2ccccc12)N/N=C/c1ccco1 [A3.056]

pIC50 (Table 11, read-out: IC50APN): 4.54
Structure (SMILES): CCCCCCCSc1nnc2c(n1)CC(C(=O)c1ccccc1)=Nc1ccccc1-2 [A11.019]

pIC50 (Table 12, read-out: IC50APN): 4.02
Structure (SMILES): O=C(OCCN1CCCCC1)C1c2ccccc2Oc2ccccc21 [A12.070]

pIC50 [4]: 4.54
Structure (SMILES): CC1=C(C#N)C(=O)N(CC(C)O)C(=O)/C1=C/c1ccc(-c2cccc(Cl)c2C)o1 (stereo not drawn) [A9.072]

pIC50 [2]: 4.06
Structure (SMILES): O=C(COc1ccccc1)N/N=C/c1ccco1 [A4.170]

pIC50 [2]: 4.20
Structure (SMILES): O=C(N/N=C/c1ccco1)c1cccc(Br)c1 [A4.152]

pIC50 [4]: 4.57
Structure (SMILES): Cc1ccc(/C=N/NC(=O)c2nnn(-c3nonc3N)c2CN2CCOCC2)o1 [A9.067]

pIC50 (Table 13, read-out: IC50APN): 5.92
Structure (SMILES): CC1=C(C#N)C(=O)N(CCO)C(=O)/C1=C\c1ccc(-c2cc(Cl)ccc2Cl)o1 [A13.001]

pIC50 [2]: 4.87
Structure (SMILES): COC(=O)N/N=C(C)\C=C\c1ccco1 [A4.025]
